From patent US6498145B1, “Use of purified SDG as a hypotensive (vasodilator) agent” (University of Saskatchewan Technologies Incorporated, priority 2000, dated 2002)

Legend:
Format in all cases: in vivo, rat
[1] = test system: anesthetized normotensive rats; assay: Blood pressure and heart rate of anesthetized normotensive rats, SDG intravenously; conditions: for maximum fall in mean B.P.: 15 minutes after administration
Method: The effects of SDG in the doses of 10 mg, 15 mg, 20 mg and 30 mg/kg given intravenously were investigated on the blood pressure (B.P.) and heart rate of anesthetized normotensive rats. The number of rats used were 8, 3, 9, and 3 respectively for the doses of SDG (10 mg, 15 mg, 20 mg and 30 mg/kg body wt.). The maximum fall in mean B.P. were approximately 38%, 29%, 46% and 57% with 10 mg, 15 mg, 20 mg and 30 mg/kg dose of SDG respectively at 15 minutes after administration of SDG. After 15 minutes the blood pressure tended to recover but the recovery was not complete. The mean blood pressure at the end of three hours after SDG administration were approximately 25% lower than control values. The changes in the systolic and diastolic pressure were similar to the mean blood pressure with various doses of SDG. […] One would expect a very long duration of hypotensive effect when SDG is given orally.

[2] = test system: anesthetized normotensive rats; assay: Hypotensive effect of SDG after premedication with blockers/inhibitors in anesthetized normotensive rats
Method: FIG. 5 is a graph showing changes in the mean arterial blood pressure (B.P.) with SDG (20 mg/kg, intravenously) in the absence or presence of methylene blue (MB) (0.5 mg/kg); methylene blue was given 15 minutes prior to administration of SDG and results are expressed as mean±S.E. *p<0.05, comparison of values at various times with respect to “0” time.
FIG. 9 is a graph showing effects of SDG in the absence or presence of pyrilamine on the mean arterial blood pressure (B.P.) in anesthetized normotensive rats. Pyrilamine was given 15 minutes before administration of SDG. The results are expressed as mean±S.E. *p<0.05, comparison of values at various times with respect to “0” time.
Heart rate was not affected by methylene blue (FIG. 8).

[3] = test system: angiotensin converting enzyme (ACE); assay: Angiotensin I-induced rise in blood pressure before and after SDG; conditions: SDG 10 mg/kg intravenously
Method: Further experiments were conducted to determine if the SDG-induced fall in the blood pressure is mediated through inhibition of angiotensin converting enzyme (ACE). Angiotensin I is converted to angiotensin II which is vasoconstrictor and raises blood pressure. If SDG lowers blood pressure by inhibiting ACE, then SDG would reduce/prevent the angiotensin I-induced rise in the blood pressure. Experiments were conducted in six normotensive Sprague-Dawley rats. […] However, the effects of angiotensin on arterial pressure of untreated rats remained unaltered. SDG (10 mg/kg) produced a marked fall in the mean arterial pressure.

angiotensin II receptor = assay: Angiotensin II response on arterial pressure before and after SDG; conditions: SDG 10 mg/kg intravenously
Method: To determine if the SDG-induced fall in the blood pressure is mediated through the blockade of angiotensin II receptor, experiments were carried out in normotensive Sprague-Dawley rats. Effects of angiotensin II (0.2 μg/kg, I.V.) given before and after 15 minutes, 30 minutes and 60 minutes of SDG (10 mg/kg) administered intravenously were investigated on the arterial pressure of six anesthetized Sprague-Dawley rats. […] The response of angiotensin II on the mean arterial pressure in untreated rats remained unaltered.

[4] = test system: anesthetized spontaneous hypertensive rats (SHR); assay: Blood pressure of anesthetized spontaneous hypertensive rats, SDG intravenously
Method: (§1) The effects of SDG on the arterial pressure of anesthetized spontaneous hypertensive rats (SHR) were investigated to determine (a) if it is effective in lowering blood pressure to the same extent as in normotensive Sprague-Dawley rats; (b) if it is effective when given by intraperitoneal route; (c) if the effect is dose-dependent.
(i) Effects of SDG in the doses of 1 mg, 3 mg and 15 mg/kg given intravenously were investigated on the blood pressures of anesthetized spontaneous hypertensive rats (SHR). The maximum fall in the blood pressure occurred between 15 to 30 minutes of SDG administration after which the blood pressure tended to recover. However, the recovery was short lived. The percent decreases in blood pressures at 30 minutes after SDG were 19, 25 and 31 respectively with 1 mg, 3 mg and 15 mg/kg of SDG. At the end of 4 hours of SDG treatment, the percent decreases were 34, 43 and 36 respectively with 1 mg, 3 mg and 15 mg dose. The fall in the blood pressure initially (at 15 minutes) was maximum with high dose of SDG.

[5] = test system: anesthetized spontaneous hypertensive rats (SHR); assay: Blood pressure of anesthetized spontaneous hypertensive rats, SDG intraperitoneally; conditions: for maximum fall in the blood pressure: 30 minutes; for percent decrease in blood pressures: end of four hours
Method: as §1
(ii) Effects of SDG in the doses of 5 mg, 10 mg, 50 mg and 200 mg/kg given intraperitoneally were investigated on blood pressure of anesthetized SHR for four hours. The maximum fall in the blood pressure were approximately 7, 37, 50 and 48% respectively with 5 mg, 10 mg, 50 mg and 200 mg of SDG at 30 minutes. At the end of four hours of SDG administration the percent decreases in blood pressures were 31, 42, 39 and 37 respectively with these four doses of SDG.

[6] = test system: anesthetized spontaneous hypertensive rats; assay: Blood pressure of anesthetized spontaneous hypertensive rats, SDG orally; conditions: SHR, 100 mg/kg orally
Method: (iii) Effects of SDG (100 mg/kg body wt.) given orally were investigated on the blood pressure of anesthetized spontaneous hypertensive rats for four hours. The blood pressures began falling at 15 minutes of SDG administration and maximum fall occurred after three hours. The decreases were of similar magnitude for systolic, diastolic and mean arterial pressures. The systolic, diastolic and mean arterial pressures respectively were 243 mmHg, 176 mmHg and 198 mmHg before administration of SDG. SDG reduced the blood pressure by approximately 25%.

[7] = normotensive Sprague-Dawley rats

SMILES: COc1cc(C[C@@H](CO[C@@H]2O[C@H](CO)[C@@H](O)[C@H](O)[C@H]2O)[C@H](CO[C@@H]2O[C@H](CO)[C@@H](O)[C@H](O)[C@H]2O)Cc2ccc(O)c(OC)c2)ccc1O [SDG, secoisolariciresinol diglucoside]
- maximum fall in mean B.P. ([1]; 10 mg/kg intravenously, normotensive rats): approximately 38%
- maximum fall in mean B.P. ([1]; 15 mg/kg intravenously, normotensive rats): ~29%
- maximum fall in mean B.P. ([1]; 20 mg/kg intravenously, normotensive rats): ~46%
- maximum fall in mean B.P. ([1]; 30 mg/kg intravenously, normotensive rats): ~57%
- heart rate ([1]; any dose (10-30 mg/kg intravenously), normotensive rats): not significantly altered
- mean blood pressure lower than control values ([1]; end of three hours after SDG administration, 10-30 mg/kg intravenously): approximately 25%
- hypotensive effect of SDG after premedication with NG-monomethyl-L-arginine ([2]; NG-monomethyl-L-arginine (inhibitor of nitric oxide synthase)): not prevented
- hypotensive effect of SDG in presence of methylene blue ([2]; SDG 20 mg/kg intravenously, methylene blue 0.5 mg/kg 15 minutes prior): completely prevented
- heart rate in presence of pyrilamine ([2]; SDG with pyrilamine): practically unchanged
- hypotensive effect of SDG after premedication with atropine ([2]; atropine (acetylcholine receptor blocker)): not prevented
- hypotensive effect of SDG after premedication with indomethacin ([2]; indomethacin (inhibitor of cyclooxygenase)): not prevented
- hypotensive effect of SDG in presence of pyrilamine ([2]; pyrilamine (histamine receptor blocker) 15 minutes before SDG): partly prevented
- mean arterial pressure [3, 7]: marked fall
- response of angiotensin I on the mean arterial pressure ([3]; angiotensin I 0.2 μg/kg intravenously, Sprague-Dawley rats, 60 minutes): marked reduction
- mean arterial pressure (angiotensin II receptor; [7]): reduced the mean arterial pressure
- angiotensin II response on arterial pressure (angiotensin II receptor; angiotensin II 0.2 μg/kg I.V., 15, 30, 60 minutes): moderately reduced
- percent decrease in blood pressures ([4]; 1 mg/kg intravenously, 30 minutes after SDG): 19%
- percent decrease in blood pressures ([4]; 1 mg/kg intravenously, end of 4 hours): 34%
- percent decrease in blood pressures ([4]; 3 mg/kg intravenously, 30 minutes after SDG): 25%
- percent decrease in blood pressures ([4]; 3 mg/kg intravenously, end of 4 hours): 43%
- percent decrease in blood pressures ([4]; 15 mg/kg intravenously, 30 minutes after SDG): 31%
- percent decrease in blood pressures ([4]; 15 mg/kg intravenously, end of 4 hours): 36%
- time of maximum fall in the blood pressure ([4]; 1-15 mg/kg intravenously): 15 to 30 min
- maximum fall in the blood pressure ([5]; 5 mg/kg intraperitoneally): approximately 7%
- percent decrease in blood pressures ([5]; 5 mg/kg intraperitoneally): 31%
- maximum fall in the blood pressure ([5]; 10 mg/kg intraperitoneally): ~37%
- percent decrease in blood pressures ([5]; 10 mg/kg intraperitoneally): 42%
- maximum fall in the blood pressure ([5]; 50 mg/kg intraperitoneally): ~50%
- percent decrease in blood pressures ([5]; 50 mg/kg intraperitoneally): 39%
- maximum fall in the blood pressure ([5]; 200 mg/kg intraperitoneally): ~48%
- percent decrease in blood pressures ([5]; 200 mg/kg intraperitoneally): 37%
- time at which blood pressures began falling [6]: 15 min
- reduction of blood pressure ([6]; observed for four hours, systolic, diastolic and mean similar): approximately 25%
